Numbers after ± are expanded uncertainties.
Columns and labels:
[1] = 101 kPa, Liquid; for viscosity: Capillary tube (Ostwald / Ubbelohde) method; for mass density: Pycnometric method
[2] = xn = mol fraction of the nth substance listed; settings: 101 kPa, Liquid, x2 = 0; for viscosity: Capillary tube (Ostwald / Ubbelohde) method; for mass density: Pycnometric method

SMILES | viscosity ([1]; 303.15 K) | mass density ([1]; 303.15 K) | viscosity ([1]; 308.15 K) | mass density ([1]; 308.15 K) | viscosity ([1]; 313.15 K) | mass density ([1]; 313.15 K) | viscosity ([1]; 318.15 K) | mass density ([1]; 318.15 K) | viscosity ([1]; 323.15 K) | mass density ([1]; 323.15 K) | viscosity ([2]; 303.15 K) | viscosity ([2]; 308.15 K) | mass density ([2]; 308.15 K) | viscosity ([2]; 313.15 K) | viscosity ([2]; 318.15 K) | mass density ([2]; 318.15 K) | viscosity ([2]; 323.15 K)
OCCOCCO [diethylene glycol] | 22.16 ± 0.46 mPa·s | 1109.48 ± 0.75 kg/m3 | 17.93 ± 0.44 mPa·s | 1105.72 ± 0.75 kg/m3 | 14.71 ± 0.43 mPa·s | 1102.11 ± 0.76 kg/m3 | 12.19 ± 0.42 mPa·s | 1098.35 ± 0.76 kg/m3 | 10.19 ± 0.41 mPa·s | 1094.94 ± 0.75 kg/m3 | – | – | – | – | – | – | –
O [water] + OCCOCCO | – | – | – | – | – | – | – | – | – | – | 0.801 ± 0.4 mPa·s | 0.722 mPa·s | 994.12 ± 0.39 kg/m3 | 0.656 mPa·s | 0.598 mPa·s | 990.3 ± 0.44 kg/m3 | 0.549 mPa·s

Reference: the NIST ThermoML archive (doi:10.1021/je1009976)
